Assay results taken from patent US12214017B2, “GLP-1 compositions and uses thereof” (Novo Nordisk A/S, priority 2017, dated 2025).

Assay: Assay (III): purity of liraglutide by HPLC (chemical stability)
Format: physicochemical
Settings: composition without phenol, compared with phenol-containing compositions
Protocol: Assay (III): Determination of Purity of Liraglutide
Determination of purity was performed using high performance liquid chromatography (HPLC) using a Waters XTerra™ MS C18 column with a gradient elution of two mobile phases, where one mobile phase was an aqueous ammonium phosphate buffer (pH 8)/acetonitrile mixture and the other mobile phase was acetonitrile in water. Detection was performed at 215 nm.
The results in Table 5 were obtained as follows: Compositions comprising liraglutide were tested. The tested compositions contained liraglutide (as specified in Table 4), mannitol (36.9 mg/ml), disodium hydrogen phosphate (1.42 mg/ml), and optionally phenol (as specified in Table 4), at pH 7.4 in an aqueous solution. These compositions were prepared as described herein in the section General Methods of Preparation. Chemical stability as expressed by purity was determined by Assay (III) described herein at start of the experiment and after storage at 25° C. or at 37° C.

CCCCCCCCCCCCCCCC(=O)N[C@@H](CCC(=O)NCCCC[C@H](NC(=O)[C@H](C)NC(=O)[C@H](C)NC(=O)[C@H](CCC(N)=O)NC(=O)CNC(=O)[C@H](CCC(=O)O)NC(=O)[C@H](CC(C)C)NC(=O)[C@H](Cc1ccc(O)cc1)NC(=O)[C@H](CO)NC(=O)[C@H](CO)NC(=O)[C@@H](NC(=O)[C@H](CC(=O)O)NC(=O)[C@H](CO)NC(=O)[C@@H](NC(=O)[C@H](Cc1ccccc1)NC(=O)[C@@H](NC(=O)CNC(=O)[C@H](CCC(=O)O)NC(=O)[C@H](C)NC(=O)[C@@H](N)Cc1cnc[nH]1)[C@@H](C)O)[C@@H](C)O)C(C)C)C(=O)N[C@@H](CCC(=O)O)C(=O)N[C@@H](Cc1ccccc1)C(=O)N[C@H](C(=O)N[C@@H](C)C(=O)N[C@@H](Cc1c[nH]c2ccccc12)C(=O)N[C@@H](CC(C)C)C(=O)N[C@H](C(=O)N[C@@H](CCCNC(=N)N)C(=O)NCC(=O)N[C@@H](CCCNC(=N)N)C(=O)NCC(=O)O)C(C)C)[C@@H](C)CC)C(=O)O [liraglutide]
Chemical stability of liraglutide (in words): less chemically stable
